Test results taken from publication PMC9133069, “In vitro proliferation and long-term preservation of functional primary rat hepatocytes in cell fibers” (Scientific Reports, 2022).

Tests used:
Type in all cases: cell-based
primary rat hepatocytes [1] = experiment: Assessment of hepatocyte proliferation inhibition in cell fibers
Text: Practically, core–shell hydrogel microfibers were fabricated to encapsulate primary rat hepatocytes at the initial cell seeding density of 2.5 × 10^7 cells mL^−1.
For that, we first fabricated cell fibers encapsulating primary rat hepatocytes at the initial cell seeding density of 2.5 × 10^7 cells mL^−1. […] Subsequently, we compared these two groups over time by analyzing their morphology and cell number.
Counting primary rat hepatocytes and evaluating their viability per cell fiber were performed three times and averaged. Prior to those procedures, the alginate shells were removed, and the primary rat hepatocytes were retrieved. To remove the shells of the cell fibers, 4 mg mL^−1 of alginate lyase (Sigma Aldrich) in Dulbecco's Phosphate-Buffered Saline (DPBS) (+) was added at a 1:100 ratio to the culture media, and the media were incubated for 15 min. To retrieve primary rat hepatocytes from ECM, 4 mg mL^−1 of collagenase (Sigma-Aldrich) in DPBS (+) was added at a 1:50 ratio to the culture media and the media were incubated for 5 min. The cell number of primary rat hepatocytes per cell fiber was counted by using cell-counting plate (WakenBtech, Japan). The cellular viabilities were examined by the trypan blue dye-exclusion test.
Then immediately, this working solution was diluted in media at intended concentrations. The changeover between starting and stopping exposure to retrorsine was done by medium replacement; the culture media surrounding the cell fibers can be completely removed from petri dishes to be replaced with new ones while keeping the cell fibers intact. The proliferation rate of the hepatocytes in the experimental groups was calculated by dividing the numbers of the hepatocytes that proliferated from 2 days of culture to 3 days of culture in the experimental groups with the ones in the control group.

primary rat hepatocytes [2] = experiment: Hepatotoxicity assessment, cell viability (trypan blue exclusion) after 24 h compound treatment; settings: Hepatocyte, 24 h treatment
Procedure: (§1) To explore the possible application of cell fibers encapsulating primary hepatocytes in the field of drug screening, we evaluated the potential of cell fibers for in vitro detection of hepatotoxicity of drugs. […] First, primary rat hepatocytes were encapsulated into core–shell hydrogel microfibers at the initial cell seeding density of 2.5 × 10^7 cells mL^−1 and were cultured in the media supplemented with 3T3CM. Secondly, the concentration-reaction curves for these compounds were obtained through the assays of cellular viability, albumin secretion, and urea synthesis performed at different time points: 4 days, 7 days, 14 days, and 30 days after the start of culture. Thirdly, based upon these concentration-reaction curves (Figs. S4–S7), the corresponding IC50 values were estimated. Moreover, we attempted to compare these IC50 values with those obtained using another culture system where primary rat hepatocytes were cultured on collagen-coated 24-well plates.
(§2) Primary rat hepatocytes cultured either in cell fibers or in collagen-coated 24-well plates were treated for 24 h with either of these compounds diluted in media at intended concentrations, and then the respective compound-treated hepatocytes underwent assays of their different specific characteristics: cell viability, albumin secretion, or urea synthesis. Data from drug-treated hepatocytes were normalized to the respective untreated controls in the same culture system. By plotting these normalized data on y-axis and the concentrations of compounds on x-axis, the concentration-reaction curves were generated.
(§3) Culture of primary rat hepatocytes in cell fibers
(§4) After formation of core-shell hydrogel microfibers encapsulating primary rat hepatocytes, they were incubated at 37 °C for more than 15 minutes to set the ECM proteins at the core region into gels. Subsequently, primary rat hepatocytes in cell fibers were cultured in DMEM supplemented with 1% Glutamax, 10% heat-inactivated FBS, 100 IU mL-1 penicillin, 100 mg mL-1 streptomycin, insulin, 6.25 mg mL-1 transferrin, 6.25 ng mL-1 selenous acid (Lonza, Tokyo, Japan), and 1mM HEPES at 37 °C under a water saturated 5% CO2 environment; this medium is the one that have been optimized to […]
(§5) were performed every 48 hours. […]
(§6) Culture of primary rat hepatocytes using collagen-coated 24-well plates 5x10^5 primary rat hepatocytes freshly isolated were seeded on collagen-coated 24-well plates (Corning Japan K.K, Tokyo, Japan). The primary rat hepatocytes were first cultured in Dulbecco’s Modified Eagle’s Medium (DMEM; Gibco, Tokyo, Japan) supplemented with 1% Glutamax (Life Technologies, Tokyo, Japan), 10% heat-inactivated foetal bovine serum (Equitech-Bio, Kerrville, TX), 100 IU mL-1 penicillin (Gibco), 100 mg mL-1 streptomycin (Gibco), and 1mM HEPES (Sigma Aldrich, Japan)

primary rat hepatocytes [3] = experiment: Hepatotoxicity assessment, albumin secretion (ELISA) after 24 h compound treatment; settings: Hepatocyte, 24 h treatment
Procedure: as §1
(§7) The amount of albumin in culture medium was measured using an enzyme-linked immunosorbent assay kit (rat albumin ELISA kit, Bethyl Laboratories, Montgomery, TX). The amount of urea in culture medium was measured using an assay kit (QuantiChrom urea assay kit, BioAssay Systems, Hayward, CA). For both assays, respective absorbency at 450 nm or at 430 nm was measured using a microplate reader (MTP-810, Corona Electric, and Hitachi, Japan). All the values were normalized by the number of hepatocytes and the data were expressed as protein amount 10^–6 cells time^−1.
as §2, §3, §4, §5
as §6, with “Aldrich, Japan) at 37 °C under a water saturated 5% CO2 environment. […]” for “Aldrich, Japan)”

primary rat hepatocytes [4] = experiment: Hepatotoxicity assessment, urea synthesis after 24 h compound treatment; settings: Hepatocyte, 24 h treatment
Procedure: as §1, §7, §2, §3, §4, §5
as §6, with “Aldrich, Japan) at 37 °C under a water saturated 5% CO2 environment. Three hours after the beginning of culture, media were changed and the primary rat hepatocytes started to be cultured in William’s medium E (Life Technologies) supplemented with 1% Glutamax, 100 IU mL-” for “Aldrich, Japan)”

[5] = cell fibers (core–shell hydrogel microfibres), culture duration 4 days
[6] = cell fibers (core–shell hydrogel microfibres), culture duration 7 days
[7] = cell fibers (core–shell hydrogel microfibres), culture duration 14 days
[8] = cell fibers (core–shell hydrogel microfibres), culture duration 30 days
[9] = collagen-coated 24-well plates, culture duration 4 days

retrorsine
number of the cells in cell fibers during exposure (primary rat hepatocytes [1]; 10 mg mL^−1, 24 h from day 2 to day 3 of culture, media containing 3T3CM): did not change
IC50 value, inhibition of primary rat hepatocyte proliferation (primary rat hepatocytes [1]; cell fibers with 3T3CM, 24 h exposure after 2 days of culture): 3100 ± 100 µg/mL
IC50 (primary rat hepatocytes [1]; cell fibers with 3T3CM, 24 h exposure after 2 days of culture, converted from mg mL^−1): ~8.82 mM

CC(=O)Nc1ccc(O)cc1 [Acetaminophen]
IC50 (primary rat hepatocytes [2]; [5]): 18.3 mM
IC50 (primary rat hepatocytes [2]; [6]): 18.6 mM
IC50 (primary rat hepatocytes [2]; [7]): 18.9 mM
IC50 (primary rat hepatocytes [2]; [8]): 18.9 mM
IC50 (primary rat hepatocytes [2]; [9]): 19.3 mM
IC50 (primary rat hepatocytes [3]; [5]): 16.7 mM
IC50 (primary rat hepatocytes [3]; [6]): 16.4 mM
IC50 (primary rat hepatocytes [3]; [7]): 16.3 mM
IC50 (primary rat hepatocytes [3]; [8]): 15.9 mM
IC50 (primary rat hepatocytes [3]; [9]): 8.51 ± 0.089 mM
IC50 (primary rat hepatocytes [4]; [5]): 17 mM
IC50 (primary rat hepatocytes [4]; [6]): 15.9 mM
IC50 (primary rat hepatocytes [4]; [7]): 15.9 mM
IC50 (primary rat hepatocytes [4]; [8]): 17.3 mM
IC50 (primary rat hepatocytes [4]; [9]): 24 mM

O=C(O)Cc1ccccc1Nc1c(Cl)cccc1Cl [Diclofenac]
IC50 (primary rat hepatocytes [2]; [9]): 0.472 ± 0.098 mM
IC50 (primary rat hepatocytes [4]; [9]): 0.385 ± 0.041 mM
